Results reported in patent US20240270715A1, “INHIBITORS OF TRANSGLUTAMINASES” (ZEDIRA GMBH, priority 2021, published 2024).

Assays:
[1] = molecular target: T1, recombinant human transglutaminase 2 (Homo sapiens, UniProt P21980); assay: Transglutaminase assay: incorporation of dansylcadaverine into dimethylcasein (DCC-assay); type: biochemical; details: recombinant human TG2 10 nM, dansylcadaverine/dimethylcasein; read-out: IC50 TG2
T1 sequence (P21980 1-687): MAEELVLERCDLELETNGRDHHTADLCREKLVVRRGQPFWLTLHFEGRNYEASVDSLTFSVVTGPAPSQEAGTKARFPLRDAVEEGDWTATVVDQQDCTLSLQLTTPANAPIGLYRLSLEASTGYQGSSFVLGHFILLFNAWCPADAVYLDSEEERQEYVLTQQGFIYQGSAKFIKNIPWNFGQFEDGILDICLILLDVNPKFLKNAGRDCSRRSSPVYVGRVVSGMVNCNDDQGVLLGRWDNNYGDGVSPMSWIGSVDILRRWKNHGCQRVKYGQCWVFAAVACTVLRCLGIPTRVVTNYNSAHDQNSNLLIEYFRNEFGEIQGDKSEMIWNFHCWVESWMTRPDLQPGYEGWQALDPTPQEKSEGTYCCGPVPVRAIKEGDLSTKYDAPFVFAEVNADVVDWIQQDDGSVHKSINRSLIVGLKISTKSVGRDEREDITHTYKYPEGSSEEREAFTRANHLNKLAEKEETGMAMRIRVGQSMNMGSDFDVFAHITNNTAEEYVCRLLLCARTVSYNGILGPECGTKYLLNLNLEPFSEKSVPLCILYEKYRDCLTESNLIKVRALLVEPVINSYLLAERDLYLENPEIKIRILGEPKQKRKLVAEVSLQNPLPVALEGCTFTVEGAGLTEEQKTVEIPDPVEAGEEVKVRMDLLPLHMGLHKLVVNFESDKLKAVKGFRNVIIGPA
Description: To illustrate the advantage of branched alkyl moieties over aromatic moieties, we refer to reference compounds Ref. 2 (ZED1227, U.S. Pat. No. 9,434,763 B2) and Ref. 3 (A8, ZED1047). Inhibition data were determined using the classical fluorescent transamidation assay (dansylcadaverine incorporation into methylated casein, DCC-assay) as described [Büchold, C.; Hils, M.; Gerlach, U.; Weber, J.; Pelzer, C.; Heil, A.; Aeschlimann, D.; Pasternack, R. Features of ZED1227: The First-In-Class Tissue Transglutaminase Inhibitor Undergoing Clinical Evaluation for the Treatment of Celiac Disease. Cells 2022, 11, 1667. https://doi.org/10.3390/cells11101667]. Casein is one of the best known high molecular weight (24 kDa) protein substrates for transglutaminases. Please note, the IC50 value of Ref. 3 (A8) published in U.S. Pat. No. 9,434,763 B2 cannot be compared to the present data, relying on a fluorogenic isopeptidase assay.
To this extent, inhibition data were determined using the classical fluorescent transamidation assay (dansylcadaverine incorporation into methylated casein, DCC-assay) as described in Büchold et al. [Büchold, C.; Hils, M.; Gerlach, U.; Weber, J.; Pelzer, C.; Heil, A.; Aeschlimann, D.; Pasternack, R. Features of ZED1227: The First-In-Class Tissue Transglutaminase Inhibitor Undergoing Clinical Evaluation for the Treatment of Celiac Disease. Cells 2022, 11, 1667. https://doi.org/10.3390/cells11101667]. Casein is one of the best known high molecular weight (24 kDa) protein substrates for transglutaminases. Inhibition data of the inventive compounds was compared with inhibition of compounds disclosed in U.S. Pat. No. 9,434,763 B2, particularly, compound A8, which is denoted herein as Reference 3. It is noteworthy that the IC50 values of compounds A8 published in U.S. Pat. No. 9,434,763 B2 and E16 from U.S. Pat. No. 11,072,634 B2 cannot be compared to the present data, relying on a fluorogenic isopeptidase assay.
For the determination of potency of inhibitors against tissue transglutaminase, the incorporation of dansylcadaverine into dimethylcasein (Zedira product T036, Lorand et al., Anal Biochem, 1971, 44:221-31) was measured using recombinant human transglutaminase 2 (Zedira Product T022).
The tissue transglutaminase is diluted in buffer (50 mM Tris-HCl, 7.5 mM CaCl2, 150 mM NaCl, pH=7.4). The final concentration of TG2 in the assay is 10 nM.
A 10 mM inhibitor stock solution is prepared in DMSO, and from this a serial 1:2-fold dilution series is prepared also in DMSO. Each of the initial dilutions is subsequently diluted 1:50-fold with buffer (50 mM Tris-HCl, 7.5 mM CaCl2, 150 mM NaCl, pH=7.4) to yield the final working dilutions containing 2% (v/v) DMSO. 15 μl of inhibitor working dilution are added per well of a 96 well microtiter plate. As control, 15 μl of a 2% (v/v) DMSO solution prepared using the buffer mentioned above are added per well.
Immediately before starting the assay, 600 μl transglutaminase working solution are added to 11.4 ml assay buffer (50 mM Tris-HCl, 10 mM CaCl2, 10 mM glutathione, 2.5% glycerol, 16.7 μM dansylcadaverine, 4 μM N,N-dimethylcasein, 200 mM NaCl, pH=8.0). 285 μl of this reaction mix are added per well containing the inhibitor.
Increase in fluorescence is measured using λex=330 nm and λemG=500 nm at […] for 30 min. A slope of the increase in fluorescence between 20 and 30 min is calculated for determination of the IC50 value (inhibitor concentration at which 50% of the initial activity is blocked).
Analysis of enzymatic activity is performed by calculation of the slope of an increase in fluorescence intensity. IC50 values are calculated by plotting the enzymatic activity (as percentage from control containing 2% DMSO instead of inhibitor) against the inhibitor concentration. IC50 is defined as the inhibitor concentration blocking 50% of initial enzyme activity.

[2] = Log D by shake flask method (octanol / PBS pH 7.4, HPLC); type: physicochemical; details: octanol / PBS pH 7.4, shake flask; read-out: logD
Description: In order to classify the inventive compounds according to their lipophilicity, Log D values (distribution coefficient) were determined by means of the well-established shake flask method, measuring the partition of a compound between an octanol and phosphate-buffered saline (PBS, pH 7.4) by HPLC.
Compounds with a moderate lipophilicity (Log D values from 0 to 3) are usually advantaged for oral absorption, being in balance between solubility and permeability. However, sophisticated formulation of a compound might improve oral bioavailability for highly lipophilic compounds.

[3] = Caco-2 permeability assay (CacoReady kit); type: in vitro ADME; details: human
Description: Permeability coefficients (Papp values) were obtained from Caco-2 barrier studies predicting oral/intestinal bioavailability of the tested compounds. The assays were performed by using CacoReady™ ready-to-use kits from ReadyCell according to the manufacturers protocol.

SMILES | IC50 [1] | logD [2] | Papp [3]
CCNC(=O)C(=O)CC[C@H](NC(=O)c1cnc(C(C)C)o1)C(=O)Nc1cccn(CC(=O)NC23CCC(C2)C3)c1=O [Compound I-90, (S)-N1-(1-(2-(bicyclo[2.1.1]hexan-1-ylamino)-2-oxoethyl)-2-oxo-1,2-dihydropyridin-3-yl)-N6-ethyl-2-(2-isopropyloxazole-5-carboxamido)-5-oxohexanediamide] | < 150 nM | < 1 | 1 to 10 ×10⁻⁶ cm/s
CCNC(=O)C(=O)CC[C@H](NC(=O)c1cc(C)oc1C)C(=O)Nc1cccn(CC(=O)NC2C3CC4CC(C3)CC2C4)c1=O (stereo partly drawn) [Compound I-49, (S)-2-(2,5-dimethylfuran-3-carboxamido)-N6-ethyl-N1-(1-(2-(2-adamantylamino)-2-oxoethyl)-2-oxo-1,2-dihydropyridin-3-yl)-5-oxohexanediamide] | < 150 nM | 1 to 3 | 1 to 10 ×10⁻⁶ cm/s
CCNC(=O)C(=O)CC[C@H](NC(=O)c1ccc2ccoc2c1)C(=O)Nc1cccn(CC(=O)NC2C3CC4CC2CC(C(N)=O)(C4)C3)c1=O (stereo partly drawn) [Compound I-114, (S)-2-(benzofuran-6-carboxamido)-N6-ethyl-N1-(1-(2-(4-aminoadamantane-1-carboxamide)-2-oxoethyl)-2-oxo-1,2-dihydropyridin-3-yl)-5-oxohexanediamide] | 150 to 600 nM | < 1 | < 1 ×10⁻⁶ cm/s
CCNC(=O)C(=O)CC[C@H](NC(=O)c1cncn1C)C(=O)Nc1cccn(CC(=O)NC23CC4CC(CC(F)(C4)C2)C3)c1=O [Compound I-8, (S)-N1-ethyl-N6-(1-(2-(3-fluoroadamantane-1-amino)-2-oxoethyl)-2-oxo-1,2-dihydropyridin-3-yl)-5-(1-methyl-1H-imidazole-5-carboxamido)-2-oxohexanediamide] | 150 to 600 nM | < 1 | < 1 ×10⁻⁶ cm/s
CCNC(=O)C(=O)CC[C@H](NC(=O)c1cnc(Cl)n1C)C(=O)Nc1cccn(CC(=O)NC23CC4CC(C)(CC(C)(C4)C2)C3)c1=O [Compound I-26, (S)-2-(2-chloro-1-methyl-1H-imidazole-5-carboxamido)-N6-ethyl-N1-(1-(2-(3,5-dimethyladamantane-1-amino)-2-oxoethyl)-2-oxo-1,2-dihydropyridin-3-yl)-5-oxohexanediamide] | 150 to 600 nM | 1 to 3 | < 1 ×10⁻⁶ cm/s
CCNC(=O)C(=O)CC[C@H](NC(=O)c1oc2ccccc2c1Cl)C(=O)Nc1cccn(CC(=O)NC2C3CC4CC(C3)CC2C4)c1=O (stereo partly drawn) [Compound I-32, (S)-2-(3-chlorobenzofuran-2-carboxamido)-N6-ethyl-N1-(1-(2-(2-adamantylamino)-2-oxoethyl)-2-oxo-1,2-dihydropyridin-3-yl)-5-oxohexanediamide] | < 150 nM | 3 to 5 | 1 to 10 ×10⁻⁶ cm/s

Results, then the compound that gave them:

IC50 [1] | logD [2] | Papp [3] | SMILES
600 to 3500 nM | < 1 | < 1 ×10⁻⁶ cm/s | CCNC(=O)C(=O)CC[C@H](NC(=O)c1nccc2cnccc12)C(=O)Nc1cccn(CC(=O)NC23CCC(C2)C3)c1=O [Compound I-107, (S)-N1-(1-(2-(bicyclo[2.1.1]hexan-1-ylamino)-2-oxoethyl)-2-oxo-1,2-dihydropyridin-3-yl)-N6-ethyl-2-(2,6-naphthyridine-1-carboxamido)-5-oxohexanediamide]
150 to 600 nM | < 1 | < 1 ×10⁻⁶ cm/s | CCNC(=O)C(=O)CC[C@H](NC(=O)c1cnccn1)C(=O)Nc1cccn(CC(=O)NC2C3CC4CC2CC(O)(C4)C3)c1=O (stereo partly drawn) [Compound I-58, (S)-N1-ethyl-N6-(1-(2-(5-hydroxyadamantane-2-amino)-2-oxoethyl)-2-oxo-1,2-dihydropyridin-3-yl)-2-oxo-5-(pyrazine-2-carboxamido)hexanediamide]
600 to 3500 nM | < 1 | < 1 ×10⁻⁶ cm/s | CCNC(=O)C(=O)CC[C@H](NC(=O)c1c[nH]cn1)C(=O)Nc1cccn(CC(=O)NC23CC4CC(CC(C4)C2)C3)c1=O [Compound I-2, (S)-N1-ethyl-5-(1H-imidazole-4-carboxamido)-N6-(1-(2-(1-adamantylamino)-2-oxoethyl)-2-oxo-1,2-dihydropyridin-3-yl)-2-oxohexanediamide]
150 to 600 nM | < 1 | < 1 ×10⁻⁶ cm/s | CCNC(=O)C(=O)CC[C@H](NC(=O)C1CCc2ccccc2C1)C(=O)Nc1cccn(CC(=O)NC2C3CC4CC2CC(C(=O)N(C)C)(C4)C3)c1=O (stereo partly drawn) [Compound I-93, (5S)-N1-ethyl-N6-(1-(2-(4-aminoadamantane-N,N-dimethyl-1-carboxamide)-2-oxoethyl)-2-oxo-1,2-dihydropyridin-3-yl)-2-oxo-5-(1,2,3,4-tetrahydronaphthalene-2-carboxamido)hexanediamide]
< 150 nM | < 1 | 1 to 10 ×10⁻⁶ cm/s | CCNC(=O)C(=O)CC[C@H](NC(=O)c1oc2ccccc2c1C)C(=O)Nc1cccn(CC(=O)NC23CC(C2)C3)c1=O [Compound I-88, (S)-N1-(1-(2-(bicyclo[1.1.1]pentan-1-ylamino)-2-oxoethyl)-2-oxo-1,2-dihydropyridin-3-yl)-N6-ethyl-2-(3-methylbenzofuran-2-carboxamido)-5-oxohexanediamide]
< 150 nM | 3 to 5 | 1 to 10 ×10⁻⁶ cm/s | CCNC(=O)C(=O)CC[C@H](NC(=O)c1cc(Br)c(Cl)s1)C(=O)Nc1cccn(CC(=O)NC2C3CC4CC(C3)CC2C4)c1=O (stereo partly drawn) [Compound I-52, (S)-2-(4-bromo-5-chlorothiophene-2-carboxamido)-N6-ethyl-N1-(1-(2-(2-adamantylamino)-2-oxoethyl)-2-oxo-1,2-dihydropyridin-3-yl)-5-oxohexanediamide]
